In ChEMBL document CHEMBL1140748, “Synthesis and biological evaluation of novel 2,4-diaminoquinazoline derivatives as SMN2 promoter activators for the potential treatment of spinal muscular atrophy” (J Med Chem, 2008):

Experiments:
[1] = Activation of SMN2 promoter in mouse NSC34 cells assessed as induction of beta-lactamase activity; type: functional, cell-based
[2] = Activation of SMN2 promoter in mouse NSC34 cells assessed as induction of beta-lactamase activity relative to nonactivated cells; type: functional
For activity in this document: test concentration or dose not given here.

| Structure (SMILES) | EC50 ([1]; Mus musculus, NSC-34) [nM] | Activity [2] | EC50 ([1]; nsc34) [nM] |
| --- | --- | --- | --- |
| Nc1nc(N)c2c(OCc3cccnc3)cccc2n1 | 24 | 2.1 |  |
| Cc1ccc(Oc2cccc3nc(N)nc(N)c23)cc1 | 1210 | 1.6 |  |
| Nc1nc(N)c2c(OCC3CCN(S(=O)(=O)c4ccc5ccccc5c4)CC3)cccc2n1 | 464 | 2 |  |
| CC(Oc1cccc2nc(N)nc(N)c12)c1ccc(Cl)c(Cl)c1 (racemic) | 320 |  |  |
| Nc1nc(N)c2c(OCc3ccc(C(F)(F)F)cc3)cccc2n1 | 17 | 1.6 |  |
| Nc1nc(N)c2c(OCC3CCN(Cc4ccc(F)c(F)c4)CC3)cccc2n1 | 322 | 2 |  |
| CCCOc1cccc2nc(N)nc(N)c12 | 180 | 2.1 |  |
| Nc1nc(N)c2c(OCc3ccco3)cccc2n1 | 300 | 1.7 |  |
| Nc1nc(N)c2c(OCC3CCN(C(=O)c4ccc(F)c(F)c4)CC3)cccc2n1 | 104 | 2.4 |  |
| Nc1nc(N)c2c(OCc3cc(F)cc(F)c3)cccc2n1 | 14 | 1.9 |  |
| Nc1nc(N)c2c(Oc3ccc4cnccc4c3)cccc2n1 | 1260 | 2.3 |  |
| Cc1ccc(C(=O)N2CCC(COc3cccc4nc(N)nc(N)c34)CC2)cc1 | 133 | 2.6 |  |
| Nc1nc(N)c2c(OCC3CCN(S(=O)(=O)c4ccc(F)c(F)c4)CC3)cccc2n1 | 40 | 2.1 |  |
| Nc1nc(N)c2c(OCC3CCCC3)cccc2n1 | 470 | 1.9 |  |
| C[C@H](Oc1cccc2nc(N)nc(N)c12)c1ccc2ccccc2c1 | 440 |  |  |
| Nc1nc(N)c2c(OC3(c4cccc(Cl)c4)CC3)cccc2n1 | 290 |  |  |
| Nc1nc(N)c2c(OCC3CCN(S(=O)(=O)c4cccc5ccccc45)CC3)cccc2n1 | 350 | 1.9 |  |
| Cc1ccccc1COc1cccc2nc(N)nc(N)c12 | 280 | 1.6 |  |
| Nc1nc(N)c2c(OCC3CCN(C(=O)c4cccc(F)c4F)CC3)cccc2n1 | 67 | 2.5 |  |
| COc1cccc(COc2cccc3nc(N)nc(N)c23)c1 | 66 | 1.6 |  |
| Nc1nc(N)c2c(Oc3ccc(F)cc3)cccc2n1 | 1320 | 1.7 |  |
| Nc1nc(N)c2c(OCC3CCN(S(=O)(=O)c4cccc(Cl)c4)CC3)cccc2n1 | 172 | 1.9 |  |
| Nc1nc(N)c2c(OCc3c(F)cccc3F)cccc2n1 | 190 | 1.8 |  |
| CC(C)(C)COc1cccc2nc(N)nc(N)c12 | 650 | 2.1 |  |
| Nc1nc(N)c2c(Oc3cccc4ccncc34)cccc2n1 | 2440 | 1.59 |  |
| Nc1nc(N)c2c(OCC3CCN(Cc4ccc5ccccc5c4)CC3)cccc2n1 | 148 | 1.7 |  |

| Structure (SMILES) | EC50 ([1]; Mus musculus, NSC-34) [nM] | Activity [2] | EC50 ([1]; nsc34) [nM] |
| --- | --- | --- | --- |
| Nc1nc(N)c2c(OCc3ccccc3C(F)(F)F)cccc2n1 | 16 | 1.6 |  |
| Nc1nc(N)c2c(OCC3CCN(S(=O)(=O)c4ccccc4Cl)CC3)cccc2n1 | 897 | 2.1 |  |
| CC(C)(C)C(Oc1cccc2nc(N)nc(N)c12)c1ccc(Cl)cc1 (racemic) | 7760 |  |  |
| Nc1nc(N)c2c(OCc3cccs3)cccc2n1 | 73 | 1.9 |  |
| Nc1nc(N)c2c(Oc3ccc(Cl)cc3)cccc2n1 | 2060 | 1.84 |  |
| COc1ccccc1COc1cccc2nc(N)nc(N)c12 | 65 | 1.6 |  |
| Cc1ccc(CN2CCC(COc3cccc4nc(N)nc(N)c34)CC2)cc1.Cl | 24 | 1.9 |  |
| CC(Oc1cccc2nc(N)nc(N)c12)c1ccc(F)cc1 (racemic) | 18 |  |  |
| Nc1nc(N)c2c(OCC3CCN(S(=O)(=O)c4ccc(F)cc4F)CC3)cccc2n1 | 82 | 2 |  |
| Cc1ccc(COc2cccc3nc(N)nc(N)c23)cc1 | 220 | 2.04 |  |
| Nc1nc(N)c2c(OC3(c4cccc(Cl)c4)CCCCC3)cccc2n1 | 1710 |  |  |
| Cc1cccc(CN2CCC(COc3cccc4nc(N)nc(N)c34)CC2)c1 | 22 | 1.9 |  |
| Nc1nc(N)c2c(OCc3ccc(F)c(F)c3)cccc2n1 | 14 | 1.8 |  |
| Nc1nc(N)c2c(OCC3CCN(Cc4ccc(Cl)cc4)CC3)cccc2n1 | 47 | 1.8 |  |
| Nc1nc(N)c2c(OCc3cc4ccccc4cn3)cccc2n1 | 220 | 2.3 |  |
| CCC(Oc1cccc2nc(N)nc(N)c12)c1ccc(Cl)cc1 (racemic) | 170 |  |  |
| Nc1nc(N)c2c(OCC3CCN(C(=O)c4ccc(Cl)cc4)CC3)cccc2n1 | 81 | 2.4 |  |
| Nc1nc(N)c2c(OCc3cccc(C(F)(F)F)c3)cccc2n1 | 23 | 1.5 |  |
| CC(Oc1cccc2nc(N)nc(N)c12)c1ccc(C(F)(F)F)cc1 (racemic) | 50 |  |  |
| CC(Oc1cccc2nc(N)nc(N)c12)c1cc(F)cc(F)c1 (racemic) | 35 |  |  |
| Cc1ccccc1C(=O)N1CCC(COc2cccc3nc(N)nc(N)c23)CC1 | 160 | 2.5 |  |
| Nc1nc(N)c2c(COc3ccccc3I)cccc2n1 | 390 | 1.9 |  |
| COc1ccc(OCc2cccc3nc(N)nc(N)c23)cc1 | 1400 | 2.1 |  |
| Nc1nc(N)c2c(OCC3CCN(S(=O)(=O)c4ccc(Cl)cc4)CC3)cccc2n1 | 603 | 2 |  |
| CC(Oc1cccc2nc(N)nc(N)c12)c1ccc2c(c1)OCO2 (racemic) | 1130 |  |  |
| Cc1cccc(COc2cccc3nc(N)nc(N)c23)c1 | 120 | 1.7 |  |

| Structure (SMILES) | EC50 ([1]; Mus musculus, NSC-34) [nM] | Activity [2] | EC50 ([1]; nsc34) [nM] |
| --- | --- | --- | --- |
| COc1ccc(COc2cccc3nc(N)nc(N)c23)cc1 | 300 | 1.7 |  |
| Cc1ccc(S(=O)(=O)N2CCC(COc3cccc4nc(N)nc(N)c34)CC2)cc1 | 551 | 1.9 |  |
| Nc1nc(N)c2c(OCc3ccc(F)cc3F)cccc2n1 | 120 | 1.8 |  |
| CC(Oc1cccc2nc(N)nc(N)c12)c1cccc(F)c1 (racemic; form 2) | 50 |  |  |
| Cc1ccccc1CN1CCC(COc2cccc3nc(N)nc(N)c23)CC1 | 18 | 1.9 |  |
| Nc1nc(N)c2c(OCC3CCN(C(=O)c4ccc(F)cc4F)CC3)cccc2n1 | 89 | 2.4 |  |
| Nc1nc(N)c2c(COc3ccc(Cl)cc3)cccc2n1 | 190 | 2 |  |
| C[C@H](Oc1cccc2nc(N)nc(N)c12)c1cccc2ccccc12 | 2390 |  |  |
| Nc1nc(N)c2c(COc3ccccc3Cl)cccc2n1 | 1160 | 2.2 |  |
| Nc1nc(N)c2c(OCC3CCN(C(=O)c4ccc5ccccc5c4)CC3)cccc2n1 | 151 | 2.4 |  |
| CC(Oc1cccc2nc(N)nc(N)c12)c1ccccc1 (racemic) | 240 |  |  |
| CC(Oc1cccc2nc(N)nc(N)c12)c1ccccc1C(F)(F)F (racemic) | 1010 |  |  |
| Nc1nc(N)c2c(OCC3CCN(Cc4ccccc4Cl)CC3)cccc2n1 | 38 | 2 |  |
| Nc1nc(N)c2c(OCc3ccccn3)cccc2n1 | 250 | 1.9 |  |
| Cl.Nc1nc(N)c2c(Oc3cccc4cnccc34)cccc2n1 | 1030 | 2.04 |  |
| CCCCCCCCCOc1cccc2nc(N)nc(N)c12 | 550 | 1.7 |  |
| Cc1ccccc1S(=O)(=O)N1CCC(COc2cccc3nc(N)nc(N)c23)CC1 | 545 | 2 |  |
| Nc1nc(N)c2c(OCc3ccccc3Cl)cccc2n1 | 140 | 2 |  |
| CC(Oc1cccc2nc(N)nc(N)c12)c1cccc(F)c1 (racemic; form 1) |  |  | 55 |
| C[C@H](Oc1cccc2nc(N)nc(N)c12)c1ccccc1 | 60 |  |  |
| C[C@@H](Oc1cccc2nc(N)nc(N)c12)c1ccccc1 | 220 |  |  |
| CC(Oc1cccc2nc(N)nc(N)c12)c1ccc(Cl)cc1 (racemic) | 80 |  |  |
| C[C@@H](Oc1cccc2nc(N)nc(N)c12)c1cccc(Cl)c1 | 32 |  |  |
| CC(Oc1cccc2nc(N)nc(N)c12)c1cccc(C(F)(F)F)c1 (racemic) | 47 |  |  |
| CC(C)(Oc1cccc2nc(N)nc(N)c12)c1cccc(Cl)c1 | 2330 |  |  |
| CC(Oc1cccc2nc(N)nc(N)c12)c1ccccc1Cl (racemic) | 290 |  |  |
